Test results as given in article PMC4865845, “A human genome-wide loss-of-function screen identifies effective chikungunya antiviral drugs” (Nature Communications, 2016).

System: CHIKV
Type: cell-based, chikungunya virus

“Hs_POLR1A_1 (AAGGTTGATGACTACAGTCAA; chemistry not given here)” gave a Score_si1 of 1.93.
“Hs_POLR1A_2 (TCGGGAGGAATTAGAACAATA; chemistry not given here)” gave a Score_si2 of 1.23.
In the case of “Hs_POU3F2_2 (AAGATGAAAGTTACCACTGAA; chemistry not given here)”, the Score_si1 is reported as 2.65.
For “Hs_PP3856_1 (CTGGACAGTGGTGACCTGCTA; chemistry not given here)”, the Score_si2 was 1.53.
“Hs_PP3856_2 (CTGGCTGGAGTCAGTCCTCAT; chemistry not given here)” showed a Score_si1 of 2.53.
In the case of “Hs_PPIL2_1 (CAGGGACAGCCTATTTATACA; chemistry not given here)”, the Score_si4 is reported as 0.92.
Work on “Hs_PPIL2_2 (AAGGAGGAGATCCGCATTGAT; chemistry not given here)” yielded a Score_si1 of 1.35.
Work on “Hs_PPIL2_3 (CACCAATTTGGACAAGTTCAA; chemistry not given here)” yielded a Score_si2 of 1.2.
For “Hs_PPP1R8_6 (TACAAATAAAGATGCCCTAAA; chemistry not given here)”, the Score_si2 was 0.7.
“Hs_PPP1R8_8 (AACCCTGAAGCTGTAAATGAA; chemistry not given here)” showed a Score_si3 of 0.62.
“Hs_PPP1R15A_3 (CAGGATCAGCCGAGGATGAAA; chemistry not given here)” gave a Score_si3 of 1.25.
For “Hs_PRPF4B_2 (sense CACCCTTAAATCGTTATTAAT; chemistry not given here)”, the Score_si4 was 0.63.
With “Hs_PRPF4B_5 (sense TCGTCTGATGATAACCTTGAA; chemistry not given here)” the Score_si1 was 2.38.
With “Hs_PRPF40A_2 (sense CTGGAAAGCCTTACTATTATA; chemistry not given here)” the Score_si1 was 2.41.
For “Hs_PRSS15_2 (sense CAGCCTTATGTCGGCGTCTTT; chemistry not given here)”, the Score_si2 was 1.66.
With “Hs_PRSS15_3 (sense TAGAAGCTATTTAATGATTAA; chemistry not given here)” the Score_si4 was 1.21.
“Hs_PRSS15_4 (sense CCGGGACATCATTGCCTTGAA; chemistry not given here)” showed a Score_si1 of 1.74.
Work on “Hs_PSD3_1 (sense CTCCATTGTCTTACTAACAAA; chemistry not given here) [reference compound]” yielded a Score_si1 of -3.63.
“Hs_PSD3_2 (sense ACCAAACGTGTTTAAACTTAA; chemistry not given here) [reference compound]” showed a Score_si4 of -0.52.
“Hs_PTBP1_2 (sense ATGGTATGAGTGTAATCTAAA; chemistry not given here) [reference compound]” showed a Score_si1 of -1.35.
With “Hs_PTBP1_3 (sense CGACATAATCTCTGTATTATA; chemistry not given here) [reference compound]” the Score_si3 was -0.58.
“Hs_PTBP1_5 (sense CACGCACATTCCGTTGCCTTA; chemistry not given here) [reference compound]” gave a Score_si2 of -1.23.
Work on “Hs_PTBP1_18 (sense GCGCGTGAAGATCCTGTTCAA; chemistry not given here) [reference compound]” yielded a Score_si4 of -0.53.
“Hs_PTPN4_3 (sense AGCACGTACCTTAGAACTCTA; chemistry not given here)” showed a Score_si3 of 1.47.
“Hs_PTPN6_5 (sense CCGGAACAAATGCGTCCCATA; chemistry not given here)” gave a Score_si4 of 1.05.
“Hs_PTX3_2 (sense AAGAAAGAAACTCACACTTAA; chemistry not given here)” was tested, and the Score_si1 was 1.48.
Work on “Hs_PTX3_3 (sense AAAGGGATTTGTATTAATTTA; chemistry not given here)” yielded a Score_si3 of 1.09.
“Hs_RAB3D_1 (sense CAGGCCCTGTTTAGCTGTTTA; chemistry not given here)” was tested, and the Score_si1 was 1.76.
Substance “Hs_RAB3D_3 (sense CTGGAACTATGGACCACATTA; chemistry not given here)” has a Score_si4 of 0.77.
With “Hs_RAB3D_4 (sense AAGCAAGTTCTTGCCCAATCA; chemistry not given here)” the Score_si2 was 1.56.
For “Hs_RAB3D_5 (sense TCCGTGGTGCCTTCTAGCTTA; chemistry not given here)”, the Score_si3 was 0.91.
“Hs_RAD51L3_2 (sense CTCACTCTCTGTAAGCATATA; chemistry not given here)” showed a Score_si3 of 0.7.
Work on “Hs_RAD51L3_4 (sense CCCAGTAACGCCTGCTGTTTA; chemistry not given here)” yielded a Score_si4 of 0.33.
For “Hs_RAD51L3_5 (sense CTGGAAGAGGTAGCTCAGAAA; chemistry not given here)”, the Score_si1 was 2.71.
In the case of “Hs_RARSL_3 (sense CACAGGAGTCTTCCTACAGTA; chemistry not given here) [reference compound]”, the Score_si1 is reported as -2.94.
With “Hs_RARSL_4 (sense CCAGCTTTCCAGAGTGTTGAA; chemistry not given here) [reference compound]” the Score_si3 was -1.26.
Substance “Hs_RARSL_6 (sense TAGATCGAATGGACAAGTATA; chemistry not given here) [reference compound]” has a Score_si2 of -1.49.
“Hs_RASL11B_2 (sense ATGCTTTGGCTTAAACTGTAA; chemistry not given here)” showed a Score_si1 of 2.53.
“Hs_ROCK1_1 (sense ACGGTTAGAACAAGAGGTAAA; chemistry not given here)” showed a Score_si4 of 0.5.
“Hs_ROCK1_3 (sense CAGATAAAGATCACACTGTTA; chemistry not given here)” was tested, and the Score_si3 was 0.95.
“Hs_ROCK1_9 (sense AACGGTTAGAACAAGAGGTAA; chemistry not given here)” gave a Score_si1 of 1.18.
Work on “Hs_RORC_2 (sense TAGGATGTGCCGGGCCTACAA; chemistry not given here)” yielded a Score_si1 of 1.28.
With “Hs_RORC_3 (sense CCGGGCCTACAATGCTGACAA; chemistry not given here)” the Score_si4 was 0.9.
“Hs_RPS6KC1_1 (sense CCGGGTTGTTTCACGAAGAAA; chemistry not given here) [reference compound]” showed a Score_si2 of -1.09.
Substance “Hs_RPS6KC1_3 (sense ACCCTGATGCTGTATAATGTA; chemistry not given here) [reference compound]” has a Score_si1 of -2.87.
In the case of “Hs_RRBP1_1 (sense CACGTAGAGGATGGTGACATA; chemistry not given here)”, the Score_si2 is reported as 1.82.
“Hs_RRBP1_3 (sense CTGGCTGCAGGTGAAAGGAAA; chemistry not given here)” was tested, and the Score_si4 was 1.53.
For “Hs_RRBP1_4 (sense AAGAGATTGTAGAGAAGCTAA; chemistry not given here)”, the Score_si3 was 1.79.
In the case of “Hs_RTN2_1 (sense TTGGATTTACACTGTAATAAA; chemistry not given here)”, the Score_si4 is reported as 0.49.
In the case of “Hs_RTN2_2 (sense GAGCTTGGATTTACACTGTAA; chemistry not given here)”, the Score_si1 is reported as 2.8.
“Hs_RXRA_1 (sense TTCGTGTAAGCAAGTACATAA; chemistry not given here)” was tested, and the Score_si1 was 2.2.
With “Hs_RXRA_3 (sense TCCGTACGATTGTCTCTGAAA; chemistry not given here)” the Score_si4 was 0.81.
In the case of “Hs_RXRA_4 (sense CTCATCGGCCTTGTAGTTGTA; chemistry not given here)”, the Score_si2 is reported as 1.74.
“Hs_SAFB_1 (sense ACGGACTGTAGTAATGGATAA; chemistry not given here)” was tested, and the Score_si3 was 0.86.
In the case of “Hs_SAFB_2 (sense AAGGTGGTAATCCTGACGAAA; chemistry not given here)”, the Score_si2 is reported as 0.95.
“Hs_SAFB_3 (sense CTGCCATATTGTAGCTCAATA; chemistry not given here)” showed a Score_si1 of 1.4.
Work on “Hs_SARS_2 (sense CTGATGAAACCATGTAATAAA; chemistry not given here)” yielded a Score_si1 of 2.9.
“Hs_SCLY_1 (sense CTGACTCAGCTTATACCTTAA; chemistry not given here)” gave a Score_si3 of 1.21.
“Hs_SCLY_2 (sense CAGAAACTAAATTAACGAATA; chemistry not given here)” gave a Score_si4 of 1.04.
For “Hs_SDFR1_8 (sense CAGGTATATACAGCATATAAA; chemistry not given here) [reference compound]”, the Score_si1 was -2.41.
“Hs_SDFR1_9 (sense CTGGTACATAAAGATGAGTAA; chemistry not given here) [reference compound]” gave a Score_si3 of -1.41.
Substance “Hs_SDFR1_10 (sense ACAGGTATATACAGCATATAA; chemistry not given here) [reference compound]” has a Score_si2 of -2.32.
For “Hs_SDFR1_11 (sense TACATAAAGATGAGTAATATA; chemistry not given here) [reference compound]”, the Score_si4 was -1.37.
With “Hs_SEC61B_1 (sense TTTAATTCACTTATACTGAAA; chemistry not given here)” the Score_si1 was 1.55.
“Hs_SEC61B_2 (sense CCCAACATTTCTTGGACCAAA; chemistry not given here)” gave a Score_si3 of 1.09.
In the case of “Hs_SHC2_10 (sense GCGGTTTGTCCTACAAGTTTA; chemistry not given here)”, the Score_si4 is reported as 0.47.
“Hs_SHC2_11 (sense TCGGTGCTGGTGGAACAGAAA; chemistry not given here)” was tested, and the Score_si1 was 2.36.
Work on “Hs_SIMP_1 (sense CAGGGAGACATTAGATCACAA; chemistry not given here) [reference compound]” yielded a Score_si4 of -0.7.
For “Hs_SIMP_2 (sense CTGGCTTGTTAGGATATATAA; chemistry not given here) [reference compound]”, the Score_si1 was -2.63.
In the case of “Hs_SIN3A_5 (sense GAGCGTGTAAGCAAGCGTCTA; chemistry not given here)”, the Score_si1 is reported as 2.49.
With “Hs_SLC6A19_2 (sense CTCGGTGATTGTGTCCATCAT; chemistry not given here)” the Score_si1 was 2.5.
“Hs_SLC6A19_4 (sense CCAGAAGATCTCCTACCCGAA; chemistry not given here)” was tested, and the Score_si2 was 0.84.
Work on “Hs_SREBF2_1 (sense ACCCATAATATCATTGAGAAA; chemistry not given here)” yielded a Score_si4 of 1.37.
“Hs_SREBF2_3 (sense CTGCAATTTGTCAGTAATCAA; chemistry not given here)” showed a Score_si1 of 2.21.
Substance “Hs_SREBF2_4 (sense AAGGCCATTGATTACATCAAA; chemistry not given here)” has a Score_si3 of 1.41.
With “Hs_SSP411_1 (sense ATGGCCTTGCATACCCTGAAA; chemistry not given here)” the Score_si1 was 2.33.
